Entries after “also recorded” stand apart in the source; their conditions may differ. Where two headings read alike, the source gives them in different places.
Experiments:
[1] = system: healthy Western participants; settings: 2022, cited from earlier work
[2] = system: healthy Chinese participants; assay type: in vivo, human
From the text: Of note, the study was not designed to identify a maximum tolerated dose. Dose escalation was to stop if a non-tolerated dose was identified. PD endpoints, including left ventricular ejection fraction (LVEF), would be measured with echocardiograms, which were reviewed by an independent cardiologist for safety assessments. The study drug would be discontinued for participants who develop left ventricular dysfunction according to pre-specified stopping rules. For additional safety monitoring, an independent, unblinded cardiologist was present at the clinical research unit from dosing through the completion of the echocardiogram on the last dosing day.
Echocardiography assessments (left ventricular fractional shortening [LVFS], left ventricular stroke volume [LVSV], left ventricular outflow tract velocity time integral [LVOT-VTI], left ventricular end-systolic volume [LVESV], left ventricular end-diastolic volume [LVEDV], left ventricular cardiac output [LVCO], and LVEF) for the SAD cohorts were collected on day 1 (baseline) and at 1.5, 4, and 24 h post-dose on day 1. For the MD cohort, the assessments were collected on day 1 (baseline) at 1.5 and 4 h post-dose on day 1, at 1.5 h post-dose on days 2, 4, and 9, and at 3 and 24 h post-dose on day 14.
Of all the echocardiography parameters, the key parameters LVEF and LVFS were classified as follows with the number of participants summarized for each dosing condition: for the LVEF category, baseline LVEF ≥60%, and post-dose LVEF <50% or <45%; change of LVEF from baseline ≤ 5%, ≤10%, or ˂15%; for the VLFS category, change of LVFS from baseline ≤ 5%, ≤10%, or ˂15%. The dose–PD response relationship between the aficamten dose and placebo group was assessed using ANOVA analysis. […] Furthermore, the relationship between PK concentration–PD response was also assessed using ANCOVA analysis of post-dose PD parameters based on changes from baseline. The model included changes from baseline in PD parameters as the dependent variables, concentration tertiles (categorical variables) as fixed effects, baseline PD parameters as covariates, and the random intercept to account for repeated measures. In addition, the heart rate (HR), systolic blood pressure (SBP), and diastolic blood pressure (DBP) were collected as a part of the vital sign assessments at pre-dose and post-dose.

[3] = MD 5 mg N=9, 25.5 h (1.5 hours post-dose on Day 2)
[4] = MD 5 mg N=9, 73.5 h (1.5 hours post-dose on Day 4)
[5] = MD 5 mg N=9, 193.5 h (1.5 hours post-dose on Day 9)
[6] = MD 5 mg N=9, 315 h (3 hours post-dose on Day 14)
[7] = MD 5 mg N=9, 336 h (24 hours post-dose on Day 14)

## CCc1nc(-c2ccc3c(c2)CC[C@H]3NC(=O)c2cnn(C)c2)no1 [aficamten]
[1]; 5 mg QD 14 days, healthy Western participants, CY 6011, ref Robertson et al., 2019, Malik et al.
  accumulation ratio (AR_AUC0-24): 4.71
[1]; 10 mg single dose, healthy Western participants, ref Malik et al.
  Cmax, mean (SD): 70.5 (69.0) ng/mL
[1]; CYP2D6-PM cohort vs non-poor metabolizers, CY 6011, ref Malik et al.
  effect of CYP2D6 poor metabolizer status on aficamten exposure: comparable; also recorded: did not affect the pharmacokinetics
[1]; SAD 10 mg, healthy Western participants, ref Malik et al.
  median tmax: 1.8 h
[1]; daily dosing, CY 6011, ref Robertson et al., 2019, Malik et al.
  time after which steady-state appeared evident: 14 days
[1]; healthy Western populations, FIH phase 1, ref Robertson et al., 2019, Malik et al.
  safety and tolerability: safe and well-tolerated
[2]; MD 5 mg N=9, 1.5 h
  LVEF Change From Baseline ≤ -5, participants: 1 (11.11%) n (%)
  LVEF Change From Baseline ≤ -10, participants: 0 (0%) n (%)
  LVEF Change From Baseline ≤ -15, participants: 0 (0%) n (%)
  LVFS Change from Baseline ≤ -5, participants: 3 (33.33%) n (%)
  LVFS Change from Baseline ≤ -10, participants: 1 (11.11%) n (%)
  LVFS Change from Baseline ≤ -15, participants: 0 (0%) n (%)
[2]; [3]
  LVEF Change From Baseline ≤ -5, participants: 4 (44.44%) n (%)
  LVEF Change From Baseline ≤ -10, participants: 0 (0%) n (%)
  LVEF Change From Baseline ≤ -15, participants: 0 (0%) n (%)
  LVFS Change from Baseline ≤ -5, participants: 4 (44.44%) n (%)
  LVFS Change from Baseline ≤ -10, participants: 0 (0%) n (%)
  LVFS Change from Baseline ≤ -15, participants: 0 (0%) n (%)
[2]; [4]
  LVEF Change From Baseline ≤ -5, participants: 3 (33.33%) n (%)
  LVEF Change From Baseline ≤ -10, participants: 0 (0%) n (%)
  LVEF Change From Baseline ≤ -15, participants: 0 (0%) n (%)
  LVFS Change from Baseline ≤ -5, participants: 5 (55.56%) n (%)
  LVFS Change from Baseline ≤ -10, participants: 1 (11.11%) n (%)
  LVFS Change from Baseline ≤ -15, participants: 0 (0%) n (%)
[2]; [5]
  LVEF Change From Baseline ≤ -5, participants: 1 (11.11%) n (%)
  LVEF Change From Baseline ≤ -10, participants: 0 (0%) n (%)
  LVEF Change From Baseline ≤ -15, participants: 0 (0%) n (%)
  LVFS Change from Baseline ≤ -5, participants: 4 (44.44%) n (%)
  LVFS Change from Baseline ≤ -10, participants: 0 (0%) n (%)
  LVFS Change from Baseline ≤ -15, participants: 0 (0%) n (%)
[2]; [6]
  LVEF Change From Baseline ≤ -5, participants: 2 (22.22%) n (%)
  LVEF Change From Baseline ≤ -10, participants: 0 (0%) n (%)
  LVEF Change From Baseline ≤ -15, participants: 0 (0%) n (%)
  LVFS Change from Baseline ≤ -5, participants: 1 (11.11%) n (%)
  LVFS Change from Baseline ≤ -10, participants: 0 (0%) n (%)
  LVFS Change from Baseline ≤ -15, participants: 0 (0%) n (%)
[2]; [7]
  LVEF Change From Baseline ≤ -5, participants: 2 (22.22%) n (%)
  LVEF Change From Baseline ≤ -10, participants: 0 (0%) n (%)
  LVEF Change From Baseline ≤ -15, participants: 0 (0%) n (%)
  LVFS Change from Baseline ≤ -5, participants: 1 (11.11%) n (%)
  LVFS Change from Baseline ≤ -10, participants: 0 (0%) n (%)
  LVFS Change from Baseline ≤ -15, participants: 0 (0%) n (%)
[2]; MD 5 mg cohort
  exposure–response analysis of change from baseline in echocardiogram parameters vs time-matched plasma concentrations: did not show a statistically significant effect
[2]; SAD 10 mg N=6, 1.5 h
  LVEF Change From Baseline ≤ -5, participants: 1 (16.67%) n (%)
  LVEF Change From Baseline ≤ -10, participants: 0 (0%) n (%)
  LVEF Change From Baseline ≤ -15, participants: 0 (0%) n (%)
  LVFS Change from Baseline ≤ -5, participants: 1 (16.67%) n (%)
  LVFS Change from Baseline ≤ -10, participants: 0 (0%) n (%)
  LVFS Change from Baseline ≤ -15, participants: 0 (0%) n (%)
[2]; SAD 10 mg N=6, 4 h
  LVEF Change From Baseline ≤ -5, participants: 1 (16.67%) n (%)
  LVEF Change From Baseline ≤ -10, participants: 0 (0%) n (%)
  LVEF Change From Baseline ≤ -15, participants: 0 (0%) n (%)
  LVFS Change from Baseline ≤ -5, participants: 0 (0%) n (%)
  LVFS Change from Baseline ≤ -10, participants: 0 (0%) n (%)
  LVFS Change from Baseline ≤ -15, participants: 0 (0%) n (%)
[2]; SAD 10 mg N=6, 24 h
  LVEF Change From Baseline ≤ -5, participants: 0 (0%) n (%)
  LVEF Change From Baseline ≤ -10, participants: 0 (0%) n (%)
  LVEF Change From Baseline ≤ -15, participants: 0 (0%) n (%)
  LVFS Change from Baseline ≤ -5, participants: 1 (16.67%) n (%)
  LVFS Change from Baseline ≤ -10, participants: 0 (0%) n (%)
  LVFS Change from Baseline ≤ -15, participants: 0 (0%) n (%)
[2]; SAD 10 mg-dose group, 1.5 h post-dose
  number of subjects with LVEF reduction of 5%–10%: one
[2]; SAD 20 mg N=6, 1.5 h
  LVEF Change From Baseline ≤ -5, participants: 3 (50%) n (%)
  LVEF Change From Baseline ≤ -10, participants: 1 (16.67%) n (%)
  LVEF Change From Baseline ≤ -15, participants: 0 (0%) n (%)
  LVFS Change from Baseline ≤ -5, participants: 3 (50%) n (%)
  LVFS Change from Baseline ≤ -10, participants: 1 (16.67%) n (%)
  LVFS Change from Baseline ≤ -15, participants: 0 (0%) n (%)
[2]; SAD 20 mg N=6, 4 h
  LVEF Change From Baseline ≤ -5, participants: 2 (33.33%) n (%)
  LVEF Change From Baseline ≤ -10, participants: 0 (0%) n (%)
  LVEF Change From Baseline ≤ -15, participants: 0 (0%) n (%)
  LVFS Change from Baseline ≤ -5, participants: 1 (16.67%) n (%)
  LVFS Change from Baseline ≤ -10, participants: 0 (0%) n (%)
  LVFS Change from Baseline ≤ -15, participants: 0 (0%) n (%)
[2]; SAD 20 mg N=6, 24 h
  LVEF Change From Baseline ≤ -5, participants: 1 (16.67%) n (%)
  LVEF Change From Baseline ≤ -10, participants: 0 (0%) n (%)
  LVEF Change From Baseline ≤ -15, participants: 0 (0%) n (%)
  LVFS Change from Baseline ≤ -5, participants: 2 (33.33%) n (%)
  LVFS Change from Baseline ≤ -10, participants: 0 (0%) n (%)
  LVFS Change from Baseline ≤ -15, participants: 0 (0%) n (%)
[2]; SAD 20 mg group, 1.5 h post-dose
  number of subjects with LVEF reduction of 10%–15%: one
[2]; SAD 20 mg-dose group, 1.5 h post-dose
  number of participants with LVEF reduction of 5%–10%: three
[2]; SAD cohorts, group 2: 37.6–56.3 ng/mL, p < 0.05
  LVFS change from baseline vs placebo group by PK concentration group: statistically significant changes from baseline
[2]; SAD cohorts, group 3: 62.5–199.0 ng/mL, p < 0.05
  LVEF change from baseline vs placebo group by PK concentration group: statistically significant changes from baseline
[2]; SAD cohorts, p < 0.05
  PK–PD relationship between plasma concentration and LVEF and LVFS: significant inverse PK–PD relationships
[2]; any dose group, ANOVA
  PD parameter changes from baseline, dose group vs placebo group: no statistically significant difference
